Source: article PMC11513893, “Discovery of Oral Degraders of the ROS1 Fusion Protein with Potent Activity against Secondary Resistance Mutations” (Journal of Medicinal Chemistry, 2024)
Several values for one entry are separate records, joined by “and”; a condition that tells them apart may be missing. Equal values may be shown once.

What was measured:
[1] = system: Ba/F3 SLC34A2-ROS1 G2032R xenograft tumors; assay: Mouse efficacy study, Ba/F3 SLC34A2-ROS1 G2032R xenograft; format: in vivo; details: NOD/SCID mice
Method: All the procedures related to animal handling, care, and treatment in this study were performed according to guidelines approved by the Institutional Animal Care and Use Committee (IACUC) of Xavier University of Louisiana following the guidance of the AAALAC. Ba/F3-ROS1 and Ba/F3-ROS1-G2032R cells were maintained in RPMI 1640 medium supplemented with 10% fetal bovine serum. The cells growing in an exponential growth phase were harvested and counted for tumor inoculation. Female NOD/SCID mice 6–8 weeks of age were allowed to adapt to laboratory conditions for 10 days prior to dosing and were allowed food and water ad libitum. Each mouse was inoculated subcutaneously in the right flank with Ba/F3 CD74-ROS1 or Ba/F3 SL34A2-ROS1 G2032R cells (1 × 10^6) in 0.2 mL of PBS mixed with Matrigel (50:50) for tumor development.

FLT3 = FLT3 (Homo sapiens, UniProt P36888); assay: Kinase assay; format: biochemical; details: average of duplicate measurements
Ba/F3 ROS1 (CD74) L2086F = assay: Antiproliferation assay; format: cell-based; details: Mus musculus, BaF3; Ba/F3 cell line
Method: (§1) Ba/F3 immortalized murine bone marrow–derived pro-B cells were obtained from Creative Biogene (Shirley, NY) and cultured in RPMI supplemented with 10% FBS and IL3 (0.5 ng/mL). Ba/F3 cells expressing ROS1 variants were maintained in RPMI supplemented with 10% FBS and puromycin (0.7 mg/mL). Crizotinib, ceritinib, brigatinib, repotrectinib, and lorlatinib were purchased from MedChem Express. Each compound was dissolved in DMSO and serially diluted in RPMI for cell culture experiments.
(§2) To assess the 72 h effect of drug treatment on cell proliferation, 2000 to 3000 cells were plated in replicates of three in 96-well plates. The plates were placed in an incubator at 37 °C, 5% CO2 for 72 h. Following drug treatments, the cells were incubated with the Alamar Blue Assay reagent (BioRad), 5 μL each well for 4 h at 37 °C and 5% CO2. Luminescence was measured on a multiplate reader and analyzed. […] IC50 values were determined using a nonlinear regression model with a sigmoidal dose response in GraphPad. The data were collected based on triplicate experiments, and presented as mean ± SD.
(§3) cDNA encoding CD74-ROS1 or mutant CD74–ROS1 was cloned into retroviral expression vectors (pLenti), and viruses were generated in HEK293T cells by transfecting with packaging plasmids. The resulting virus was used to infect Ba/F3 cells. After retroviral infection, Ba/F3 cells were selected by incubation with puromycin (0.7 mg/mL) for 2 weeks. For Ba/F3 cells infected by the CD74–ROS1 variants, IL3 was withdrawn from the culture medium at least 2 weeks before the experiments.

[2] = system: Ba/F3 ROS1 (CD74) G2032R-L2086F; assay: Antiproliferation assay; format: cell-based; details: Mus musculus, BaF3; Ba/F3 cell line
Method: as §1, §2, §3

Ba/F3 ROS1 (CD74) G2032R = assay: Antiproliferation assay; format: cell-based; details: Mus musculus, BaF3; Ba/F3 cell line
Method: as §1, §2, §3

[3] = system: Ba/F3 ROS1 (CD74) S1986F-G2032R; assay: Antiproliferation assay; format: cell-based; details: Mus musculus, BaF3; Ba/F3 cell line
Method: as §1, §2, §3

[4] = system: Ba/F3 ROS1 (CD74) S1986F-L2086F; assay: Antiproliferation assay; format: cell-based; details: Mus musculus, BaF3; Ba/F3 cell line
Method: as §1, §2, §3

[5] = system: Ba/F3 ROS1 (CD74) S1986F-G2032R-L2086F; assay: Antiproliferation assay; format: cell-based; details: Mus musculus, BaF3; Ba/F3 cell line
Method: as §1, §2, §3

CHEK1 = CHEK1 (Homo sapiens, UniProt O14757); assay: Kinase assay; format: biochemical; details: average of duplicate measurements
Log P measurement = format: physicochemical
Text: An important physicochemical property for a PROTAC molecule is its lipophilicity that largely dictates its pharmaceutical performance such as absorption, permeability, and distribution.

Sequence of FLT3 (P36888 27-993, species assumed): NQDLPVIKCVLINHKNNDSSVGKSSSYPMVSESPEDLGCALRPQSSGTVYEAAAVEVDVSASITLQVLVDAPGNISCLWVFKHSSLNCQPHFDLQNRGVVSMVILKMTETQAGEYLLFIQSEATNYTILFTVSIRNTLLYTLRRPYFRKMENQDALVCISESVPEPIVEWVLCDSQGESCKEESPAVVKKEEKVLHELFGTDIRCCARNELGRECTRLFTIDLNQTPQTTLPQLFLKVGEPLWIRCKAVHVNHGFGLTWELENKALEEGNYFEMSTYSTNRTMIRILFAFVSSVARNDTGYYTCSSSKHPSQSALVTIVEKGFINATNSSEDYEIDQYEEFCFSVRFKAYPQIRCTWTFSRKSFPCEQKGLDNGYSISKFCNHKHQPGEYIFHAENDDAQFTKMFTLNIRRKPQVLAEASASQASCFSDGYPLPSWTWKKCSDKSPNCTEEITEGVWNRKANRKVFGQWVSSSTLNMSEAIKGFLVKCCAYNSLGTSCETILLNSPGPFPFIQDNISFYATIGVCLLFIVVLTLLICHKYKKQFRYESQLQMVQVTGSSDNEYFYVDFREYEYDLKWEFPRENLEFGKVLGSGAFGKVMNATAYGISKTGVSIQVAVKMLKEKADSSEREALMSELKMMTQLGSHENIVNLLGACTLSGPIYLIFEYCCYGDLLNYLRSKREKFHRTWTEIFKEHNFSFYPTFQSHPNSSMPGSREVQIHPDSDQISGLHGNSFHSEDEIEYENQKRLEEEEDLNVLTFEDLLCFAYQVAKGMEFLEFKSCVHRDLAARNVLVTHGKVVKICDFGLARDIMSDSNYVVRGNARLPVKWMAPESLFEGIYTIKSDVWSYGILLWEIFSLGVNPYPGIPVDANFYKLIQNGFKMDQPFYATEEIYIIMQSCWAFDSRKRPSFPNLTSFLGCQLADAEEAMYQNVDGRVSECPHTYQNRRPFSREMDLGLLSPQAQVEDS
Sequence of CHEK1 (O14757 whole entry, species assumed): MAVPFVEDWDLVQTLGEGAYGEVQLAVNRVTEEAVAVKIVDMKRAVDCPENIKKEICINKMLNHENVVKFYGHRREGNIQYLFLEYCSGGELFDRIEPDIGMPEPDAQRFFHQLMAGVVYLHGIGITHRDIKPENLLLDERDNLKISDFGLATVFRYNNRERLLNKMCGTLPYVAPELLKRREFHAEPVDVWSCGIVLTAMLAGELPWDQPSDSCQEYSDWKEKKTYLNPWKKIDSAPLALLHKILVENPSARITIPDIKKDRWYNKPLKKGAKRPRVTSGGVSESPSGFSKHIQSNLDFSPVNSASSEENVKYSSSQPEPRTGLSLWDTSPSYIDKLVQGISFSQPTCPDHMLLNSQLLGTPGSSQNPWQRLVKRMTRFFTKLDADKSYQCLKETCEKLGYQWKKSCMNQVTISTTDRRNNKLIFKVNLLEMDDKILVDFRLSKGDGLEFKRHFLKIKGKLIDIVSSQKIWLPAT

COc1cc(N2CCC(N3CCN(CC4CCN(c5ccc6c(c5)CN(C5CCC(=O)NC5=O)C6=O)CC4)CC3)CC2)ccc1Nc1ncc(Cl)c(Nc2ccccc2P(C)(C)=O)n1 (centres unmarked) [9o, 3-(5-(4-((4-(1-(4-((5-Chloro-4-((2-(dimethylphosphoryl)phenyl)amino)pyrimidin-2-yl)amino)-3-methoxyphenyl)piperidin-4-yl)piperazin-1-yl)methyl)piperidin-1-yl)-1-oxoisoindolin-2-yl)piperidine-2,6-dione]
TGI (tumor growth inhibition) ([1]; 10 mg/kg PO qd): 33%
TGI (tumor growth inhibition) ([1]; 30 mg/kg PO qd): 78%
IC50 (FLT3): < 10 nM and 3.5 nM
IC50 (Ba/F3 ROS1 (CD74) L2086F): 6.9 ± 1.7 nM
IC50 [2]: 66.2 ± 18.2 nM
IC50 (Ba/F3 ROS1 (CD74) G2032R): 7.7 ± 2 nM
IC50 [3]: 49.5 ± 10.2 nM
IC50 [4]: 1.9 ± 0.4 nM
IC50 [5]: 37.8 ± 4.4 nM
IC50 (CHEK1): 40 nM
logP (Log P measurement): 2.54
